Measured values taken from patent publication US8304410B2, “Pyrrole compounds as inhibitors of mycobacteria, synthesis thereof and intermediates thereto” (priority 2007, dated 2012).
Values after ≈ are worked out from the molar mass of the structure shown.

Columns and labels:
Type in all cases: cell-based
M. tuberculosis RMP-R = test: microbe, parasite or virus in culture; conditions: for MIC: Mycobacterium tuberculosis, read-out: M. tuberculosis RMP-R (Rif-R) MIC; for M. tuberculosis RMP-R (Rif-R) MIC: rifampicin-resistant mycobacteria
M. tuberculosis INH-R = test: microbe, parasite or virus in culture; conditions: for MIC: Mycobacterium tuberculosis, read-out: M. tuberculosis INH-R MIC; for M. tuberculosis INH-R MIC: isoniazid-resistant mycobacteria
M. tuberculosis PZA-R = conditions: pirazinamide-resistant mycobacteria
M. tuberculosis SM-R = conditions: streptomycin-resistant mycobacteria

Structure (SMILES) | MIC (M. tuberculosis RMP-R) [µg/mL] | MIC (M. tuberculosis INH-R) [µg/mL] | M. tuberculosis INH-R MIC (M. tuberculosis INH-R) [µg/mL] | PZA-R MIC (M. tuberculosis PZA-R) [µg/mL] | M. tuberculosis RMP-R (Rif-R) MIC (M. tuberculosis RMP-R) [µg/mL] | SM-R MIC (M. tuberculosis SM-R) [µg/mL]
CSc1ccc(-c2cc(CN3CCSCC3)c(C)n2-c2ccc(F)cc2)cc1 [Compound 3a, N-(4-fluorophenyl)-2-methyl-3-thiomorpholinomethyl-5-(4-methylsulfanylphenyl)pyrrole] | 0.25 (≈ 0.606 µM) | > 16 | >16 | – | – | –
CSc1ccc(-c2cc(CN3CCSCC3)c(C)n2-c2ccc(C)cc2)cc1 [Compound 3b] | – | – | 16 | 0.5 | 0.25 | 0.25
CCc1ccc(-n2c(-c3ccc(SC)cc3)cc(CN3CCSCC3)c2C)cc1 [Compound 3c] | – | – | 16 | 0.25 | 0.25 | 0.25
CCCc1ccc(-n2c(-c3ccc(SC)cc3)cc(CN3CCSCC3)c2C)cc1 [Compound 3d] | – | – | 8 | 0.5 | 0.5 | 0.25
CSc1ccc(-c2cc(CN3CCSCC3)c(C)n2-c2ccc(C(C)C)cc2)cc1 [Compound 3e] | – | – | 16 | 1 | 1 | 0.125
CSc1ccc(-c2cc(CN3CCN(C)CC3)c(C)n2-c2ccc(F)cc2)cc1 [Compound 3f] | – | – | 8 | 2 | 2 | 1
CSc1ccc(-c2cc(CN3CCOCC3)c(C)n2-c2ccc(F)cc2)cc1 [Compound 3h] | – | – | >16 | 0.5 | 2 | 0.25
NNC(=O)c1ccncc1 [Isoniazid, INH, Isoniazid, reference compound] | 0.25 (≈ 1.82 µM) | > 64 | – | – | – | –
CO[C@H]1/C=C/O[C@@]2(C)Oc3c(C)c(O)c4c(O)c(c(/C=N/N5CCN(C)CC5)c(O)c4c3C2=O)NC(=O)/C(C)=C\C=C\[C@H](C)[C@H](O)[C@@H](C)[C@@H](O)[C@@H](C)[C@H](OC(C)=O)[C@@H]1C [Rifampicin, RIF, Rifampicin] | > 64 | 0.8 (≈ 0.972 µM) | – | – | – | –
[H]/N=C(/N)N[C@H]1[C@H](O)[C@@H](O)[C@H](O[C@@H]2O[C@@H](C)[C@](O)(C=O)[C@H]2O[C@@H]2O[C@@H](CO)[C@H](O)[C@@H](O)[C@@H]2NC)[C@@H](N/C(N)=N\[H])[C@@H]1O [Streptomycin, SM, Streptomycin, reference compound] | 0.5 (≈ 0.86 µM) | 0.5 (≈ 0.86 µM) | – | – | – | –
